According to PMC3156789 (Biochemistry, 2011):

How the values were obtained:
CHK [1] = experiment: CHK phosphorylation of peptides derived from α- and β-synucleins; type: biochemical; details: 30 °C; for reduction in CHK phosphorylation rate: vs β-syn(112–134), Fig. 2B, P81 filter assay, [γ-^32P]ATP
transgenic mice = details: mouse, in vivo; cited from earlier work
[2] = Circular dichroism analysis of secondary structure; type: physicochemical; details: aqueous solution; SFig. 6
CHK-His6 = target: T1, CHK-His6 (Rattus norvegicus, UniProt P41243); experiment: Kinetic analysis of phosphorylation of peptide substrates by CHK-His6; type: biochemical
T1 sequence (P41243 1-467): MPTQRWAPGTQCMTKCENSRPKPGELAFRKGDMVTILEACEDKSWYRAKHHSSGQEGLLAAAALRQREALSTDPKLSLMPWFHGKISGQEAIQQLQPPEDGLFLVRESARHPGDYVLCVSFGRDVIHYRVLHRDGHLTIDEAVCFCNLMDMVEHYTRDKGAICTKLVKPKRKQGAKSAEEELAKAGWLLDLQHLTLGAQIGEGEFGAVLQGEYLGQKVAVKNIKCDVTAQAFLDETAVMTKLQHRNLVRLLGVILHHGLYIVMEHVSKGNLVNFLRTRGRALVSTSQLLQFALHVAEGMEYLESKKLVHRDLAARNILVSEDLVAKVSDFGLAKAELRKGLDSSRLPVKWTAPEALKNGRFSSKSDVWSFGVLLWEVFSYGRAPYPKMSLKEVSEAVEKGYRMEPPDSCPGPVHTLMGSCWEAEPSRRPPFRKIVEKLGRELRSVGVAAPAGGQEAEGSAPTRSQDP

CHK [3] = experiment: Phosphorylation of α- and β-synucleins by CHK; type: biochemical; details: for phosphate incorporated by CHK: reaction time 120 min, synuclein 0.56 μM, CHK 0.04 μM
CHK [4] = type: biochemical; details: higher than that of hsp90 (SFig. 4B)
CHK [5] = experiment: CHK phosphorylation of Flag-tagged β-synuclein in transfected HEK293T cells; type: cell-based; details: HEK293T co-transfected with CHK; pervanadate-treated; Western blot
[6] = CHK-His6 0.2 μM, substrate peptides 0–400 μM
[7] = CHK-His6 0.2 μM, substrate peptides 0–400 μM, Lineweaver-Burk plots
[8] = vs β-syn(112–134) and SFK-C-terminal peptide

## [Y127F] β-syn(112–134): Y127 is replaced by phenylalanine
CHK [1]
  reduction in CHK phosphorylation rate: 84%

## [P123H] β-synuclein: β-synuclein mutant, proline to histidine substitution at position 123
Transgenic mice
  phenotype of transgenic mice overexpressing the mutant: progressive neurodegeneration

## KKDPEERPTFEYLQSFTATEPQYQPGENL [SFK C-terminal Peptide, reference compound]
[2]
  secondary structure by CD: random coil conformation
CHK-His6; [6]
  kcat/KM: 5.1×10^−4 μM^−1S^−1
CHK-His6; [7]
  kcat: 0.13 ± 0.003 S^−1

## KKK–GESFEAQDEGIYWNVGPEA [[D9A]CHK-optimal peptide]
CHK-His6; [6]
  kcat/KM: 111×10^−4 μM^−1S^−1
CHK-His6; [7]
  kcat: 1.27 ± 0.06 S^−1
CHK-His6; vs CHK-optimal peptide
  effect of D9A substitution on KM: small increase in KM
  effect of D9A substitution on kcat: slight reduction of kcat

## [Y119F, Y130F]β-syn(112–134): contains Y127 as the only tyrosine
CHK [1]
  reduction in CHK phosphorylation rate: 30%

## α-synuclein
CHK [3]
  phosphate incorporated by CHK: 0.024 pmol
CHK [3]; α-synuclein vs β-synuclein
  CHK substrate quality in comparison: much poorer substrate of CHK compared to β-synuclein

## KKK–GESFEDQDEGIYWNVGPEA [CHK-optimal peptide]
CHK-His6; [6]
  kcat/KM: 140×10^−4 μM^−1S^−1
CHK-His6; [7]
  kcat: 1.45 ± 0.05 S^−1
CHK-His6; CHK-optimal peptide
  kcat: 1.45 s⁻¹
CHK-His6; [8]
  kcat relative to β-syn(112–134) and SFK-C-terminal peptide: approximately ten-fold higher
  phosphorylation efficiency in comparison: phosphorylated with an efficiency higher than those of β-syn(112–134) and SFK-C-terminal peptide

## β-synuclein: recombinant β-synuclein (GST-β-synuclein in Fig. 5); potential CHK substrate in rat brain cytosol
CHK [3]
  phosphate incorporated by CHK: ~ 0.9 pmol
CHK [4]
  rate of CHK phosphorylation relative to hsp90: ~ 23 fold

## Flag-[Y127F]β-synuclein: [Y127F]β-synuclein with the Flag tag attached at the N-terminus
CHK [5]
  effect of Y127F on CHK-induced phosphorylation in cells: reduced the level of CHK-induced phosphorylation

## KKKK-MEPEGESYEDPPQEEYQEYEPEA [β-syn(112–134)]
[2]
  secondary structure by CD: random coil conformation
CHK-His6; [6]
  kcat/KM: 6.7×10^−4 μM^−1S^−1
CHK-His6; [7]
  kcat: 0.17 ± 0.01 S^−1
CHK [1]; higher than α-syn(117–140) peptide, CHK 0.11 μM, peptide 20 μM, time course (Fig. 3B)
  CHK phosphorylation efficiency relative to α-syn peptide: ~ 10 fold
